These results are taken from ChEMBL document CHEMBL6120940, “Discovery of N-Aryl-N'-[4-(aryloxy)cyclohexyl]squaramide-Based Inhibitors of LXR/SREBP-1c Signaling Pathway Ameliorating Steatotic Liver Disease: Navigating the Role of SIRT6 Activation” (J Med Chem, 2024).

Series [1] in a line: Stability in mouse plasma measured after 120 mins by LC-MS/MS analysis. Type of series: ADME, cell-free. The conditions noted are these: read-out: Stability.
A short description of series [2]: Stability in human plasma measured after 120 mins by LC-MS/MS analysis. Type of series: ADME, cell-free. The conditions noted are these: read-out: Stability.
Series [3] has as its target CYP3A4 (Homo sapiens, UniProt P08684). Kind of series: Inhibition of CYP3A4 in human liver microsomes at 10 uM using midazolam as substrate preincubated for 5 mins followed by NADPH generating system addition and measured after 15 mins relative to control. The conditions noted are these: probe midazolam, time 20 min. The format is ADME, Microsome. (Liver microsomes are a subcellular fraction often used to study metabolism.)

Series [4] can be described thus: Downregulation of SREBP-1c mRNA expression in human HepG2 cells at 10 uM pretreated with compound for 30 mins followed by T0901317 addition and measured after 12 hrs by RT-qPCR analysis relative to control. Type of series: functional. The conditions noted are these: time 12.5 hrs. On the technique in general: In qPCR the cycle at which signal appears reflects the starting amount.

A short description of series [5]: Stability in rat plasma measured after 120 mins by LC-MS/MS analysis. Type of series: ADME, cell-free. The conditions noted are these: read-out: Stability.
Series [6] addresses CYP2D6 (Homo sapiens, UniProt P10635). Kind of series: Inhibition of CYP2D6 in human liver microsomes at 10 uM using dextromethorphan as substrate preincubated for 5 mins followed by NADPH generating system addition and measured after 15 mins relative to control. Type of series: ADME, Microsome. The conditions noted are these: probe dextromethorphan, time 20 min.
The target in series [7] is T1, CYP1A2 (Homo sapiens, UniProt P05177).
T1 sequence (P05177 whole entry): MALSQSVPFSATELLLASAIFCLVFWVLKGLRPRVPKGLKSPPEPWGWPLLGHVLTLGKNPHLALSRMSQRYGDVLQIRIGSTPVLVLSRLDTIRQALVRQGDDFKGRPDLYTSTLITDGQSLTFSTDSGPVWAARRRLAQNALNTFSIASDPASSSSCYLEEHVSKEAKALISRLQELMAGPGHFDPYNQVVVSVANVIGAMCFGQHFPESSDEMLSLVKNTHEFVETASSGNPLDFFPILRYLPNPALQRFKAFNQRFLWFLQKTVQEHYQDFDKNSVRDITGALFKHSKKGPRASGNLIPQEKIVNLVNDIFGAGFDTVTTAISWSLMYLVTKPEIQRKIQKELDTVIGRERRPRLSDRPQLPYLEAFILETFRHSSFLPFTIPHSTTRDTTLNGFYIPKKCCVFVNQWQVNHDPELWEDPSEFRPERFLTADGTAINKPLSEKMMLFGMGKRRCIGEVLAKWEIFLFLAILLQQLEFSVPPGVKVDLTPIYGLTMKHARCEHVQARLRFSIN
Kind of series: Inhibition of CYP1A2 in human liver microsomes at 10 uM using phenacetin as substrate preincubated for 5 mins followed by NADPH generating system addition and measured after 15 mins relative to control. The format is ADME, Microsome. The conditions noted are these: probe phenacetin, time 20 min.

A short description of series [8]: Metabolic stability in mouse liver microsomes at 1 uM measured after 30 mins in presence of NADPH regeneration system by LC-MS/MS analysis. Type of series: ADME, Microsome. The conditions noted are these: read-out: Stability.
Series [9] has as its target T2, Sterol regulatory element-binding protein 1 (Homo sapiens) (UniProt P36956).
T2 sequence (whole entry): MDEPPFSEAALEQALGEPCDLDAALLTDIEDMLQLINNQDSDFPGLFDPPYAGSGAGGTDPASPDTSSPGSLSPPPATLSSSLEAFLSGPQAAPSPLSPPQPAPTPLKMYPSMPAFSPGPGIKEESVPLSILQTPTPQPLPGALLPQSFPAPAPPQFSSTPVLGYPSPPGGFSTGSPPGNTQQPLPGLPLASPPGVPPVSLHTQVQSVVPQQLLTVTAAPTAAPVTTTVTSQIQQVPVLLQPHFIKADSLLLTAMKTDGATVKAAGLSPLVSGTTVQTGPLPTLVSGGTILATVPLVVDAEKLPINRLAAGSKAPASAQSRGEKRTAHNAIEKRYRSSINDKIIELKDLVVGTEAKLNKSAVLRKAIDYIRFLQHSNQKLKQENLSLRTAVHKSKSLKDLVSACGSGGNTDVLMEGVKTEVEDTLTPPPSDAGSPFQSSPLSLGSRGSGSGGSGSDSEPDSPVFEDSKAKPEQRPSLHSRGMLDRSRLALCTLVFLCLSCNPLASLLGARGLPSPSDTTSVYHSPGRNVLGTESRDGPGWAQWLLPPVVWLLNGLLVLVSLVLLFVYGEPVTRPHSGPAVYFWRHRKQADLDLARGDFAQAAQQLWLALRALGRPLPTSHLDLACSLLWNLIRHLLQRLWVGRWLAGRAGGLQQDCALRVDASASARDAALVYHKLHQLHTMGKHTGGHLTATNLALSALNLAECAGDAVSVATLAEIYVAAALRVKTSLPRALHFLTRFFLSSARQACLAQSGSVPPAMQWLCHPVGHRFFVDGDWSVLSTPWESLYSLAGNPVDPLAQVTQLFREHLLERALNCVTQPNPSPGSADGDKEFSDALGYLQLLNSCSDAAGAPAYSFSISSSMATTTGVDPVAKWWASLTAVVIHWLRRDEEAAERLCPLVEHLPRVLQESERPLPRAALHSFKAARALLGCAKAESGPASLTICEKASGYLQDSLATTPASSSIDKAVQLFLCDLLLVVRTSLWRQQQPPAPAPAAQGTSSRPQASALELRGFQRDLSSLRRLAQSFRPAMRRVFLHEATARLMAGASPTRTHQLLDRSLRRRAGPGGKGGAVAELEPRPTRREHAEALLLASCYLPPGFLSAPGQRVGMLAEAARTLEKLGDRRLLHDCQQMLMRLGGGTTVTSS
Kind of series: Inhibition of SREBP-1c transcriptional activity in human HepG2 cells expressing LXRalpha/RXRalpha assessed as reduction in SRE-luciferase level at 10 uM pretreated with compound for 30 mins followed by T0901317 addition and measured after 12 hrs by Dual-Glo luciferase assay relative to control. Type of series: cell-based. The conditions noted are these: time 12.5 hrs.

The nature of series [10]: Metabolic stability in rat liver microsomes at 1 uM measured after 30 mins in presence of NADPH regeneration system by LC-MS/MS analysis. Type of series: ADME, Microsome. The conditions noted are these: read-out: Stability.
Series [11] has as its target CYP2C19 (Homo sapiens, UniProt P33261). In words: Inhibition of CYP2C19 in human liver microsomes at 10 uM using S-mephenytoin as substrate preincubated for 5 mins followed by NADPH generating system addition and measured after 15 mins relative to control. Type of series: ADME, Microsome. The conditions noted are these: probe S-mephenytoin, time 20 min.
A short description of series [12]: Metabolic stability in human liver microsomes at 1 uM measured after 30 mins in presence of NADPH regeneration system by LC-MS/MS analysis. The conditions noted are these: read-out: Stability. Type of series: ADME, Microsome.
For series [13], the target named is Voltage-gated inwardly rectifying potassium channel KCNH2 (Homo sapiens, UniProt Q12809). In words: Inhibition of human ERG expressing HEK cells by whole-cell patch clamp assay. Type of series: toxicity, cell-based.
Series [14] has as its target CYP2C9 (Homo sapiens, UniProt P11712). Kind of series: Inhibition of CYP2C9 in human liver microsomes at 10 uM using diclofenac as substrate preincubated for 5 mins followed by NADPH generating system addition and measured after 15 mins relative to control. The conditions noted are these: probe diclofenac, time 20 min. Type of series: ADME, Microsome.

What is called inhibition is the change of the read-out against control, counted positive when it falls. Broadly, the IC50 is the concentration that inhibits the measured activity by half. Low readings indicate greater potency in that assay, high ones weaker potency in that assay.

CYP2D6, sequence (P10635 whole entry): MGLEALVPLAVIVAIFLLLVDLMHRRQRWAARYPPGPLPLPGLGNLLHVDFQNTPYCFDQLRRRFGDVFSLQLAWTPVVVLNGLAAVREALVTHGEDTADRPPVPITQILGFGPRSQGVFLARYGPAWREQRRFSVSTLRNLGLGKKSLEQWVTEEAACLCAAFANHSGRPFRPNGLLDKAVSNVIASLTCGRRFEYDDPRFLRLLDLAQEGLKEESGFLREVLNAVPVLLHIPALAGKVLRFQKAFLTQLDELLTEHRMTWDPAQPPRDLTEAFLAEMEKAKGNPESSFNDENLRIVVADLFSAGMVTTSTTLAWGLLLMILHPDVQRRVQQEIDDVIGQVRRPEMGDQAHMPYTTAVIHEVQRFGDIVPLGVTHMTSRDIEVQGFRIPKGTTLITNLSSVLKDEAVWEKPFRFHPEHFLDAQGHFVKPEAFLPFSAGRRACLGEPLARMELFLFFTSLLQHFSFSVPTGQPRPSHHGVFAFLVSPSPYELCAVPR
CYP2C19, sequence (P33261 whole entry): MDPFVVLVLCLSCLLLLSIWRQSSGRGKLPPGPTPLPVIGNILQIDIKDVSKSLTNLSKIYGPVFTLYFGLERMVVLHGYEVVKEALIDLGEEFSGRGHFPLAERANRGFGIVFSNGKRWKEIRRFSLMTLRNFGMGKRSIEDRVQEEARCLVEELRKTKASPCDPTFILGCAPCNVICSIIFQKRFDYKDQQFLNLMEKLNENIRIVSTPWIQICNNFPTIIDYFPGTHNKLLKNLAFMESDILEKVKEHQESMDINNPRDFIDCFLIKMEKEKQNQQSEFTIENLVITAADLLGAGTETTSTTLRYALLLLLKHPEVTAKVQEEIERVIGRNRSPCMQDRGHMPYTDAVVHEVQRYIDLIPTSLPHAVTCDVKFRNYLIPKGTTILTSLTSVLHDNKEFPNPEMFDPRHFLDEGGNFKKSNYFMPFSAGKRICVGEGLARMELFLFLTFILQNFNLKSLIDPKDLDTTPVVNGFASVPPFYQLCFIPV
CYP3A4, sequence (P08684 whole entry): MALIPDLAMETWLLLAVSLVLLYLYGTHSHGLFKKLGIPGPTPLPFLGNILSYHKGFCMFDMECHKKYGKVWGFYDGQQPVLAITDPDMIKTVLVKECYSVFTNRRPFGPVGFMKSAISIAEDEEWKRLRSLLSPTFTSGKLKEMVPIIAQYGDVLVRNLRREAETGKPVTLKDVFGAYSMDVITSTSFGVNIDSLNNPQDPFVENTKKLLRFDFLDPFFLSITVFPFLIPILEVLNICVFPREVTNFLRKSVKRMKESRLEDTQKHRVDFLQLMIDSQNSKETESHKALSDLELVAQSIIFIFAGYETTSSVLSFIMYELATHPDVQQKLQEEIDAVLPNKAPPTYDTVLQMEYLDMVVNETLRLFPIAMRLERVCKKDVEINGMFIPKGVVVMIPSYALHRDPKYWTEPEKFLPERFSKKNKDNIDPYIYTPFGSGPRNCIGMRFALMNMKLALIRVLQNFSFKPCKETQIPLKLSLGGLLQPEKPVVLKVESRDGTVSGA
CYP2C9, sequence (P11712 whole entry): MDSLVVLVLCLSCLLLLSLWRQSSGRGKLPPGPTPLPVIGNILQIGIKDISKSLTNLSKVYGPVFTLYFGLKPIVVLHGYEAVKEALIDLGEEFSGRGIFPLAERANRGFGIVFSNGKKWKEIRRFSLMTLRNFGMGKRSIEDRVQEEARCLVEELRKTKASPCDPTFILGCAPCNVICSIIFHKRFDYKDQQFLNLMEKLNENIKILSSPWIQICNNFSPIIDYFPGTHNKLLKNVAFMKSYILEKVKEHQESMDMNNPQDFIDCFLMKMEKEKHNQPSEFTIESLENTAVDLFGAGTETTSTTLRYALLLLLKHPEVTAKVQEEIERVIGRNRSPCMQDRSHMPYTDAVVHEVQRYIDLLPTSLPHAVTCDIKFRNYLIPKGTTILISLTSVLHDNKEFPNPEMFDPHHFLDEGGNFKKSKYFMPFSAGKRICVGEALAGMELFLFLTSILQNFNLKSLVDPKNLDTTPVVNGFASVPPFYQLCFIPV
Voltage-gated inwardly rectifying potassium channel KCNH2, sequence (Q12809 whole entry): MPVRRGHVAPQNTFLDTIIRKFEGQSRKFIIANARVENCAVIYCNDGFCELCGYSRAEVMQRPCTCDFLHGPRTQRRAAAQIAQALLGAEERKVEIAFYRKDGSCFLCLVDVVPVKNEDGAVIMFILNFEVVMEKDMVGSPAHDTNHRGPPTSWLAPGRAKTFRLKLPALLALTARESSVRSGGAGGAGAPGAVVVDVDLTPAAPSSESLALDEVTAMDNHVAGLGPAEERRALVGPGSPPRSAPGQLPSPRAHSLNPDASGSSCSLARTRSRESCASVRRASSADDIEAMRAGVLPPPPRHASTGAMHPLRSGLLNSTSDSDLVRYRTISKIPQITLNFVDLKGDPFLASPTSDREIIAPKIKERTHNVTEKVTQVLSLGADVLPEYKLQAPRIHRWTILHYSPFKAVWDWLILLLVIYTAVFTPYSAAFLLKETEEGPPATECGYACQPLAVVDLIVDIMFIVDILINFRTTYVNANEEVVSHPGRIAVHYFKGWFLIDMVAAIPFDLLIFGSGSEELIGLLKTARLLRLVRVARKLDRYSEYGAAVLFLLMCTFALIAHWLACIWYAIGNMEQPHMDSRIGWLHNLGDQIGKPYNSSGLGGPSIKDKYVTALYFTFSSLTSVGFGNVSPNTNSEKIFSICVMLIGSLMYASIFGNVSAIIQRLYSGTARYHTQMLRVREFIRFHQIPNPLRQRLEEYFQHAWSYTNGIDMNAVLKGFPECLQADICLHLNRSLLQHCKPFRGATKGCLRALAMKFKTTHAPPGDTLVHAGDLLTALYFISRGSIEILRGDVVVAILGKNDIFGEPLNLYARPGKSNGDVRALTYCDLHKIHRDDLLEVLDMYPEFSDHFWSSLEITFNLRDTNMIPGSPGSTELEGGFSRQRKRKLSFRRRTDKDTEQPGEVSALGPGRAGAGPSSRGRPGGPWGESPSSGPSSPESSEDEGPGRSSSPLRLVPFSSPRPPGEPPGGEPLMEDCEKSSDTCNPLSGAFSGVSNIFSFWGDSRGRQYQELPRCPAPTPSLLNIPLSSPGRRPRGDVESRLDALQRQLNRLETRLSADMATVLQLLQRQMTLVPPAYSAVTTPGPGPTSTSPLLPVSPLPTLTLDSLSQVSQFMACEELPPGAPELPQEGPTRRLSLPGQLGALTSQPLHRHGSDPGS

Regarding `COc1ccccc1Nc1c(N[C@H]2CC[C@H](Oc3ccc(C#N)cc3)CC2)c(=O)c1=O`, the remaining at 2 h in series [1] was > 100%; in [2], 96.3%; in [5], 93.1%. Moreover, the inhibition at 0.25 h, 10 µM is 84% in series [3]; 86.2% in series [6]; > 100% in [7]; 38.9% in series [11]; 56.9% in series [14]. In series [4], the Activity is reported as 7.4%. Besides, the remaining at 0.5 h, 1 µM in [8] came out at 31%; in [10] it was 26.5%; in series [12], 15.5%. Also, the inhibition in series [9] came out at 32.6%. This compound also returned an IC50 in series [13] of 493 nM.
